Key:
Histone deacetylase = type: cell-based, Homo sapiens; details: hela
A549 = experiment: cells; type: functional, cell-based; details: Homo sapiens, A549, 48 h
HCT-116 = experiment: Antiproliferative activity against human HCT-116 cells measured after 48 hrs by MTT assay; type: functional, cell-based; details: HCT-116, 48 h
SGC-7901 = experiment: Antiproliferative activity against human SGC-7901 cells measured after 48 hrs by MTT assay; type: functional, cell-based; details: SGC-7901, 48 h
MDA-MB-231 [1] = experiment: Antiproliferative activity against human MDA-MB-231 cells measured after 48 hrs by MTT assay; type: functional, cell-based; details: MDA-MB-231, 48 h
Histone deacetylase 8 = biological target: T1, Histone deacetylase 8 (Homo sapiens, UniProt Q9BY41); experiment: Inhibition of human full-length C-terminal His-tagged HDAC8 expressed in baculovirus infected Sf9 insect cell using fluorogenic HDAC class 2a substrate measured after 30 mins by fluorimetry
T1 sequence (Q9BY41 whole entry): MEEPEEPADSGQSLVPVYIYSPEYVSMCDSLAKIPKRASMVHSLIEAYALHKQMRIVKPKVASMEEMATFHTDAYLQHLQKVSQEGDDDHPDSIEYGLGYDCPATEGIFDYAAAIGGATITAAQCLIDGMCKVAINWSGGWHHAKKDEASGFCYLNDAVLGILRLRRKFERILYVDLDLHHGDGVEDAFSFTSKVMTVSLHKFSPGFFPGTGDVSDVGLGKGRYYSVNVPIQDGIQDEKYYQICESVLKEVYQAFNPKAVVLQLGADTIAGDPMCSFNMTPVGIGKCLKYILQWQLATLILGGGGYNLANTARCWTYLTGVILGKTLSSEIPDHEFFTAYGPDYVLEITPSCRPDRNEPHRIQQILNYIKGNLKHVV

MDA-MB-231 [2] = experiment: Potency index, ratio of MS-275 IC50 to test compound IC50 for antiproliferative activity against human MDA-MB-231 cells; type: functional
Histone deacetylase 4 = Histone deacetylase 4 (Homo sapiens, UniProt P56524); experiment: Inhibition of recombinant human N-terminal GST-fused/C-terminal His-tagged HDAC4 (627 to 1084 residues) expressed in baculovirus infected Sf9 insect cells using fluorogenic HDAC class 2a substrate measured after 30 mins by fluorimetry
Chain of Histone deacetylase 4 (P56524 whole entry, the tested form may be a part): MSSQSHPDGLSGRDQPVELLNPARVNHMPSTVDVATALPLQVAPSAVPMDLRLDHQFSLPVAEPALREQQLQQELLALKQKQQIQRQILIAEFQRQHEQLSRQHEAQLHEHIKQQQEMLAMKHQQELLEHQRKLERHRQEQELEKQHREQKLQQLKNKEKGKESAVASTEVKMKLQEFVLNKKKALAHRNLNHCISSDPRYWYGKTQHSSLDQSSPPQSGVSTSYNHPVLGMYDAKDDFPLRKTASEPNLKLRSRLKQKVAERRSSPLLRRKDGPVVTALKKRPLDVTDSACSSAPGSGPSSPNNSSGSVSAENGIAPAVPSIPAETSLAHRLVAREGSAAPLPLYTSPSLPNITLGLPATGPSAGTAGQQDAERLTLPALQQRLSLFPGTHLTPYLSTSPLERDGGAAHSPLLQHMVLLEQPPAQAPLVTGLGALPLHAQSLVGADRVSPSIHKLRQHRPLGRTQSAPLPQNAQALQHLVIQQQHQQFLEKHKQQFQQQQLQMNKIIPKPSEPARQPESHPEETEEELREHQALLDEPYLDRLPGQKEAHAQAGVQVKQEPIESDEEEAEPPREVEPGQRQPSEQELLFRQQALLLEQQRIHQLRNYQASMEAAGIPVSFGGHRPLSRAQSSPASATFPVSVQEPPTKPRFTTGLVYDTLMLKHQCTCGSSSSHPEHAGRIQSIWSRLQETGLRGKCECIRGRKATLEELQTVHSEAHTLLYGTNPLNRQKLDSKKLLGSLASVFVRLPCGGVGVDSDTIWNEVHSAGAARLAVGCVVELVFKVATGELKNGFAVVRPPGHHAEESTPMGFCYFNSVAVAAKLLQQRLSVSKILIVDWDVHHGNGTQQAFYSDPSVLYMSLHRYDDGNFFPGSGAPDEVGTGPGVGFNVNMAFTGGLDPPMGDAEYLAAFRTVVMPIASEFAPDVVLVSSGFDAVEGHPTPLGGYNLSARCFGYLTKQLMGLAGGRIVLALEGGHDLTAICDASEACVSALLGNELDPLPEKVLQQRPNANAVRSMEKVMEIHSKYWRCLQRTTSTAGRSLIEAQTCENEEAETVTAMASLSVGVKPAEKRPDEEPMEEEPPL

[3] = biological target: T2, Protein deacetylase HDAC6 (Homo sapiens, UniProt Q9UBN7); experiment: Inhibition of recombinant human N-terminal GST-tagged HDAC6 (1 to 1215 residues) expressed in Sf9 insect cells using fluorogenic HDAC substrate 3 measured after 30 mins by fluorimetry
T2 sequence (Q9UBN7 whole entry): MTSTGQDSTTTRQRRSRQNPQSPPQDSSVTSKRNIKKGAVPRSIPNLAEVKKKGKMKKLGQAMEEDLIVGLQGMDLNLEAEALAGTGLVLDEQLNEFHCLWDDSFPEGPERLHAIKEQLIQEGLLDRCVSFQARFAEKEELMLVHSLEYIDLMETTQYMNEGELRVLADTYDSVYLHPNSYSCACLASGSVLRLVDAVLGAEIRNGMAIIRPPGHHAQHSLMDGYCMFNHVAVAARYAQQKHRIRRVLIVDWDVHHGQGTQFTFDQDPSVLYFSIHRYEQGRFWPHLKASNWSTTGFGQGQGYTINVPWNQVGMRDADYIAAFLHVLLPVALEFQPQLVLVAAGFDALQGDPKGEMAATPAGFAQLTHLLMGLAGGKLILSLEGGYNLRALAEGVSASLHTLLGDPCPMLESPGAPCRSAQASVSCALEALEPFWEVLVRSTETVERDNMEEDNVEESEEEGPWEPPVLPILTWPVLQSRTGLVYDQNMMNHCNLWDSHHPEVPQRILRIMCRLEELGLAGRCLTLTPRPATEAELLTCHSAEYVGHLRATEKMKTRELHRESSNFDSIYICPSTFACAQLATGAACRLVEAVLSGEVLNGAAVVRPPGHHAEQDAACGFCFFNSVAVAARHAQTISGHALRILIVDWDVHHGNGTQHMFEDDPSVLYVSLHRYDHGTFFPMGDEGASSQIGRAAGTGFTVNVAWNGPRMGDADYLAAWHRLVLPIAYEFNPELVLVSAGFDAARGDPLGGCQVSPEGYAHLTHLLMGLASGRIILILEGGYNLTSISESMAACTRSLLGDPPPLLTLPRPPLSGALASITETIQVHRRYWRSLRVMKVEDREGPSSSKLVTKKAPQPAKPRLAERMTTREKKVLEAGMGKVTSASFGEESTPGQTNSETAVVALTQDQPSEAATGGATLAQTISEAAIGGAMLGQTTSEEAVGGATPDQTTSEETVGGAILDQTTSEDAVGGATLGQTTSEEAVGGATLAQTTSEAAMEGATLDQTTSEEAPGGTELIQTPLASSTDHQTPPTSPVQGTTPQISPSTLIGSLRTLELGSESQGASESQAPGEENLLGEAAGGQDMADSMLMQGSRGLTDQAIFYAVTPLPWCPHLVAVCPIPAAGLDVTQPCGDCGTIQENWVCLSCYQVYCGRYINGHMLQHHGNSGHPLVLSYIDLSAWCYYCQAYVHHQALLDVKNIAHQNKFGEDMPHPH

Histone deacetylase 1 = Histone deacetylase 1 (Homo sapiens, UniProt Q13547); experiment: Inhibition of recombinant human full-length C-terminal Flag-His6-tagged HDAC1 (1 to 482 residues) expressed in Sf9 insect cells using fluorogenic HDAC substrate measured after 30 mins by fluorimetry
Chain of Histone deacetylase 1 (Q13547 whole entry, the tested form may be a part): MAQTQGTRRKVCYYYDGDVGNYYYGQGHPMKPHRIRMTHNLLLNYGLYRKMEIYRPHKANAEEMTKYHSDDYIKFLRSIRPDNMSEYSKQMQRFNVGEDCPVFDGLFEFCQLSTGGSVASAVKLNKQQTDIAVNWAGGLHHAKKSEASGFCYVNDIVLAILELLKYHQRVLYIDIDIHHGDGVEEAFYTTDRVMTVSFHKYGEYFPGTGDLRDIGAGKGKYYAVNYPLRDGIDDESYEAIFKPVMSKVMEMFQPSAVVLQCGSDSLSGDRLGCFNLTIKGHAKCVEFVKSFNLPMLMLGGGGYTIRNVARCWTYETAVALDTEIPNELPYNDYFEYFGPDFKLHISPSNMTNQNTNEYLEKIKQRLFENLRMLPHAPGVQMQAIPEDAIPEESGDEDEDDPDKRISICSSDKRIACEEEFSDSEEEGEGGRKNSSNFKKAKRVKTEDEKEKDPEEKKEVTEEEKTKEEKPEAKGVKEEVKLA

K562 = experiment: cells; type: functional, cell-based; details: Homo sapiens, K562, 48 h
HepG2 = experiment: cells; type: functional, cell-based; details: Homo sapiens, HepG2, 48 h
MDA-MB-231 [4] = experiment: Potency index, ratio of SAHA IC50 to test compound IC50 for antiproliferative activity against human MDA-MB-231 cells; type: functional
[5] = biological target: Histone deacetylase 3/Nuclear receptor corepressor 2 (HDAC3/NCoR2) (Homo sapiens, UniProt O15379); experiment: biochemical; design: species or system Sf9
Chain of Histone deacetylase 3/Nuclear receptor corepressor 2 (HDAC3/NCoR2) (O15379 whole entry): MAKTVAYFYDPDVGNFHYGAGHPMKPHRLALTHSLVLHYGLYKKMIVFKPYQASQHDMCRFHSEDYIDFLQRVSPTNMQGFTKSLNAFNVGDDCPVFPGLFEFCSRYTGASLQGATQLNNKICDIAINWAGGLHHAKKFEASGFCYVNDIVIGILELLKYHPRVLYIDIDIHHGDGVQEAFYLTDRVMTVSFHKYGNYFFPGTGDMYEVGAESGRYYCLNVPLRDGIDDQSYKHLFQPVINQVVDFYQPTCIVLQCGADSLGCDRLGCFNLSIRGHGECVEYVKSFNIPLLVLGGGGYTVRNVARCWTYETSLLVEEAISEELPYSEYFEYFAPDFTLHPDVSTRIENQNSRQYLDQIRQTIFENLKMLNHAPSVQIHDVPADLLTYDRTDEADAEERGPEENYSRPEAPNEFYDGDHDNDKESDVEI
Chain of Histone deacetylase 3/Nuclear receptor corepressor 2 (HDAC3/NCoR2) (Q9Y618 whole entry, further chain): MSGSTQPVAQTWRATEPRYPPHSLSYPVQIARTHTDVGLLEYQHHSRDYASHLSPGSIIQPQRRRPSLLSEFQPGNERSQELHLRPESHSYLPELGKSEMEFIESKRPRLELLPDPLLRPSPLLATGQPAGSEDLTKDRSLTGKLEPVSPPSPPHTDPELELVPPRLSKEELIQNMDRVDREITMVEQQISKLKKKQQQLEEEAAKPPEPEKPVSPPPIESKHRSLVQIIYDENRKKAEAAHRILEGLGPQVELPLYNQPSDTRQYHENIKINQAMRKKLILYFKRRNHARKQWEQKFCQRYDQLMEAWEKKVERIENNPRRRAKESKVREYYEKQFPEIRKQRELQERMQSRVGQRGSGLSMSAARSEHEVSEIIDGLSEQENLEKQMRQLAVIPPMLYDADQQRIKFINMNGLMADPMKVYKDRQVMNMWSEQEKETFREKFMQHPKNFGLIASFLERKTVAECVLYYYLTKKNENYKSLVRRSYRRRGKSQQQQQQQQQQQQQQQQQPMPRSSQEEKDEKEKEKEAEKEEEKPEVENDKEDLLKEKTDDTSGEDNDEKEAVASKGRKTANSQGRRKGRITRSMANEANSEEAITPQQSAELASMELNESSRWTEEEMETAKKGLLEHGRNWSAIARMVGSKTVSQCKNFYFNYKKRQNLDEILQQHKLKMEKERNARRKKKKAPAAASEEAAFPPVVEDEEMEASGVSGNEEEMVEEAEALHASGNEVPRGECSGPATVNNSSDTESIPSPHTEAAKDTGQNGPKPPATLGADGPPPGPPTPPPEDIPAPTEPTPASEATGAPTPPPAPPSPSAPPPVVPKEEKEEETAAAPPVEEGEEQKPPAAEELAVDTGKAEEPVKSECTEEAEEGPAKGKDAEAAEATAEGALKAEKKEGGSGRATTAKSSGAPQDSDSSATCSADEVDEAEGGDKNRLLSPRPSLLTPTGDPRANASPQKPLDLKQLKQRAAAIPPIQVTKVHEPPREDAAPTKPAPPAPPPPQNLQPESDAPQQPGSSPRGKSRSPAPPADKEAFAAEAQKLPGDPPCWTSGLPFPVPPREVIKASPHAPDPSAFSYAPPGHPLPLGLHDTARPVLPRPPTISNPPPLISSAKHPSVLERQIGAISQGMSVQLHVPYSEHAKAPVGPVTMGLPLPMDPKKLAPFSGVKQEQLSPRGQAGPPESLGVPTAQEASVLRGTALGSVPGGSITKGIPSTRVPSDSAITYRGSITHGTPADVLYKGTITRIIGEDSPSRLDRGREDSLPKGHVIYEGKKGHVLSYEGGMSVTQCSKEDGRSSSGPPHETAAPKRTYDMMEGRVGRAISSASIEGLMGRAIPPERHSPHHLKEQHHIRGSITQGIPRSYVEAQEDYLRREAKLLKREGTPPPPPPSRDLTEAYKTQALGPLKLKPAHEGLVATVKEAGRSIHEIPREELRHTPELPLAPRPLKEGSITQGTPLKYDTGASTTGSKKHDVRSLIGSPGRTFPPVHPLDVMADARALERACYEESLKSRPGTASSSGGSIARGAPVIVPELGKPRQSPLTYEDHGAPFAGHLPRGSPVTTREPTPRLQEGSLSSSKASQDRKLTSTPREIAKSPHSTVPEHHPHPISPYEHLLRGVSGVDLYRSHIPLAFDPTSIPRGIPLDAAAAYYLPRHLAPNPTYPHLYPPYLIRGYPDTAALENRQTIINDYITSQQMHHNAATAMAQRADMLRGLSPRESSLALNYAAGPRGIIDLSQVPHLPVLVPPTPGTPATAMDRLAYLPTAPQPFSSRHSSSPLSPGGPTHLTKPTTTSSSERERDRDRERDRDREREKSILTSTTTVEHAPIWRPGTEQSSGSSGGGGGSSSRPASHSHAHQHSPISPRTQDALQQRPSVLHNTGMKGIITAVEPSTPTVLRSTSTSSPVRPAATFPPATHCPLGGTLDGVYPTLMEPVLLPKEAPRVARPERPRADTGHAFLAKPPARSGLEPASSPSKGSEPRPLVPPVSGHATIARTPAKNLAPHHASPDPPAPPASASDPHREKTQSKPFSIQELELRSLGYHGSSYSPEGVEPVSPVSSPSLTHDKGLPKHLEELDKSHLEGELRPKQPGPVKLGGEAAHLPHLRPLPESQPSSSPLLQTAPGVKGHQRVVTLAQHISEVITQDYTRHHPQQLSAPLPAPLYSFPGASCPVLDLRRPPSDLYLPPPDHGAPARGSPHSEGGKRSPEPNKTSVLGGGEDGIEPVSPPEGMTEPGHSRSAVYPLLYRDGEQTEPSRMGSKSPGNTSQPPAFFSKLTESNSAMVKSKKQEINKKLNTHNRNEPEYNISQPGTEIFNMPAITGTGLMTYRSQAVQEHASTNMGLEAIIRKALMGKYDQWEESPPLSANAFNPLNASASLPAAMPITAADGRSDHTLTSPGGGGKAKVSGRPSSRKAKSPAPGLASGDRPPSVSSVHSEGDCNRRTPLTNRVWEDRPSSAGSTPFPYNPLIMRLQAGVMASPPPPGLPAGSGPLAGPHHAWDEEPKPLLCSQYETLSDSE

in vitro = details: dog, liver microsomes

| SMILES | IC50 (Histone deacetylase) [µM] | IC50 (A549) [µM] | IC50 (HCT-116) [µM] | IC50 (SGC-7901) [µM] | IC50 (MDA-MB-231 [1]) [µM] | other results |
| --- | --- | --- | --- | --- | --- | --- |
| Cc1ccc(Nc2nc(Cl)nc3c2ncn3CCCCCCCC(=O)NO)cc1 | 0.0153 |  |  |  |  |  |
| CCCCCNc1nc(Cl)nc2c1ncn2Cc1ccc(C(=O)Nc2ccc(F)cc2N)cc1 | 2.86 |  |  |  |  |  |
| CCCNc1nc(Cl)nc2c1ncn2CCCC(=O)NCc1ccc(C(=O)Nc2ccccc2N)cc1 | 1.26 | 514 | 21.5 | 21.1 | 28.4 |  |
| CCN(CC)c1nc(Cl)nc2c1ncn2Cc1ccc(C(=O)Nc2ccc(F)cc2N)cc1 | 4.24 |  |  |  |  |  |
| CNc1nc(Cl)nc2c1ncn2Cc1ccc(C(=O)Nc2ccc(F)cc2N)cc1 | 1.73 |  |  |  |  |  |
| CCCNc1nc(Cl)nc2c1ncn2Cc1ccc(C(=O)Nc2ccc(C)cc2N)cc1 | 3.13 |  |  |  |  |  |
| CCN(CC)c1nc(Cl)nc2c1ncn2CCCC(=O)NCc1ccc(C(=O)Nc2ccccc2N)cc1 | 3.91 | 392 | 20.6 | 59.9 | 11.1 |  |
| CCCCNc1nc(Cl)nc2c1ncn2Cc1ccc(C(=O)Nc2ccc(F)cc2N)cc1 | 1.28 |  |  |  |  |  |
| CCCNc1nc(Cl)nc2c1ncn2Cc1ccc(C(=O)Nc2ccccc2N)cc1 | 0.574 | 0.8 | 5.5 | 1.99 | 0.05 | IC50 (Histone deacetylase 8): 1880 nM; Ratio IC50 (MDA-MB-231 [2]): 4; IC50 (Histone deacetylase 4): > 100 µM; IC50 [3]: 43.7 µM; IC50 (Histone deacetylase 1): 309 nM; IC50 (K562): 5430 nM; IC50 (HepG2): 120 nM; Ratio IC50 (MDA-MB-231 [4]): 4; IC50 [5]: 1360 nM |
| CNc1nc(Cl)nc2c1ncn2Cc1ccc(C(=O)Nc2ccc(Br)cc2N)cc1 | 2.16 |  |  |  |  |  |
| CCCCCNc1nc(Cl)nc2c1ncn2Cc1ccc(C(=O)Nc2ccc(Br)cc2N)cc1 | 18.68 |  |  |  |  |  |
| CNc1nc(Cl)nc2c1ncn2CCCC(=O)NCc1ccc(C(=O)Nc2ccccc2N)cc1 | 5.02 | 97 | 87.1 | 27 | 15.5 |  |
| CCCCNc1nc(Cl)nc2c1ncn2Cc1ccc(C(=O)Nc2ccc(C)cc2N)cc1 | 1.01 |  |  |  |  |  |
| O=C(CCCCCCC(=O)Nc1ccccc1)NO [VORINOSTAT] |  |  | 1.55 | 2.12 | 1.54 | half-life (in vitro): 30 min |
| CCNc1nc(Cl)nc2c1ncn2Cc1ccc(C(=O)Nc2ccccc2N)cc1 | 1.64 | 0.86 | 1.53 | 0.99 | 0.06 | IC50 (Histone deacetylase 8): 2370 nM; Ratio IC50 (MDA-MB-231 [2]): 4; IC50 (Histone deacetylase 4): > 100 µM; IC50 [3]: 31.7 µM; IC50 (Histone deacetylase 1): 93.5 nM; IC50 (K562): 2890 nM; IC50 (HepG2): 160 nM; Ratio IC50 (MDA-MB-231 [4]): 4; IC50 [5]: 1070 nM |
| CCCCNc1nc(Cl)nc2c1ncn2Cc1ccc(C(=O)Nc2ccc(Br)cc2N)cc1 | 2.04 |  |  |  |  |  |
| CCN(CC)c1nc(Cl)nc2c1ncn2Cc1ccc(C(=O)Nc2ccc(Br)cc2N)cc1 | 3.11 |  |  |  |  |  |

| SMILES | IC50 (Histone deacetylase) [µM] | IC50 (A549) [µM] | IC50 (HCT-116) [µM] | IC50 (SGC-7901) [µM] | IC50 (MDA-MB-231 [1]) [µM] | other results |
| --- | --- | --- | --- | --- | --- | --- |
| CCNc1nc(Cl)nc2c1ncn2Cc1ccc(C(=O)Nc2ccc(F)cc2N)cc1 | 5.77 |  |  |  |  |  |
| CCNc1nc(Cl)nc2c1ncn2Cc1ccc(C(=O)Nc2ccc(Br)cc2N)cc1 | 10.33 |  |  |  |  |  |
| Nc1ccccc1NC(=O)c1ccc(CNC(=O)OCc2cccnc2)cc1 [ENTINOSTAT] |  | 1.48 | 2.48 | 0.98 |  | IC50 (K562): 1190 nM; IC50 (HepG2): 1760 nM |
| Nc1cc(Br)ccc1NC(=O)c1ccc(Cn2cnc3c(Cl)nc(Cl)nc32)cc1 | 9.1 |  |  |  |  |  |
| CCCNc1nc(Cl)nc2c1ncn2Cc1ccc(C(=O)Nc2ccc(F)cc2N)cc1 | 4.41 |  |  |  |  |  |
| Cc1ccc(NC(=O)c2ccc(Cn3cnc4c(Cl)nc(Cl)nc43)cc2)c(N)c1 | 25.04 |  |  |  |  |  |
| Nc1cc(F)ccc1NC(=O)c1ccc(Cn2cnc3c(Cl)nc(Cl)nc32)cc1 | 2.64 |  |  |  |  |  |
| CCN(CC)c1nc(Cl)nc2c1ncn2Cc1ccc(C(=O)Nc2ccc(C)cc2N)cc1 | 4.33 |  |  |  |  |  |
| CCNc1nc(Cl)nc2c1ncn2Cc1ccc(C(=O)Nc2ccc(C)cc2N)cc1 | 5.57 |  |  |  |  |  |
| CCCCCNc1nc(Cl)nc2c1ncn2CCCC(=O)NCc1ccc(C(=O)Nc2ccccc2N)cc1 | 3.43 | 177 | 14.4 | 19.6 | 9.68 |  |
| CCNc1nc(Cl)nc2c1ncn2CCCC(=O)NCc1ccc(C(=O)Nc2ccccc2N)cc1 | 2.31 | 149 | 90.8 | 56.8 | 17.5 |  |
| CCCCCNc1nc(Cl)nc2c1ncn2Cc1ccc(C(=O)Nc2ccc(C)cc2N)cc1 | 2.03 |  |  |  |  |  |
| CNc1nc(Cl)nc2c1ncn2Cc1ccc(C(=O)Nc2ccccc2N)cc1 | 1.48 | 0.86 | 1.67 | 5.16 | 0.24 | IC50 (Histone deacetylase 8): 1020 nM; Ratio IC50 (MDA-MB-231 [2]): 4; IC50 (Histone deacetylase 4): > 100 µM; IC50 [3]: 21.8 µM; IC50 (Histone deacetylase 1): 77.4 nM; IC50 (K562): 23 nM; IC50 (HepG2): 2290 nM; Ratio IC50 (MDA-MB-231 [4]): 4; IC50 [5]: 1770 nM |
| CCCNc1nc(Cl)nc2c1ncn2Cc1ccc(C(=O)Nc2ccc(Br)cc2N)cc1 | 9.26 |  |  |  |  |  |
| CNc1nc(Cl)nc2c1ncn2Cc1ccc(C(=O)Nc2ccc(C)cc2N)cc1 | 1.98 |  |  |  |  |  |
| CCCCNc1nc(Cl)nc2c1ncn2CCCC(=O)NCc1ccc(C(=O)Nc2ccccc2N)cc1 | 0.95 | 165 | 11.2 | 64.1 | 5.64 |  |
